Laboratory results reported in patent publication US5760214A, “Bone resorption inhibition/osteogenesis promotion compound” (Iskra Industry Co., Ltd., priority 1993, dated 1998).

Experiments:
[1] = Intracorporeal Distribution of Compound (Experiment 1); format: in vivo; settings: mice, 20 μCi/20 g; for drug concentration in blood: i.v. tail vein, 3H, mean; for drug quantity in tissue: brain / drug quantity in tissue: muscle / drug quantity in tissue: stomach: i.v.
Protocol: The compound 1-3 produced in Synthesis Example 1-3 was subjected to radioactive labelling by ^3 H (0.34 mCi/mg), and was injected into the vein of the tail of mice in a dosage of 20 μCi/20 g. Groups of mice each comprising five mice were killed at 1 minute, 5 minutes, 15 minutes, 30 minutes, 1 hour, 4 hours, 6 hours, 24 hours, 48 hours and 72 hours after the injection, and 50 μl of the blood was collected from the eye socket of each mouse. Further, the heart, the womb, the small intestine, bones (thighbone), etc., were collected from each mouse, and 50 mg of the tissue (50 μl for the blood) was placed into a plastic test tube. Further, 0.2 ml of perchloric acid, 0.4 ml of hydrogen peroxide and a drop of n-octyl alcohol were put into the test tube, and the test tube was left in a water bath at 75° C. for 45 minutes. Next, 0.1 ml of this digestive fluid was sampled and was placed into a bottle storing a scintillating solution and furthermore, 5 ml of 0.5% scintillating solution was mixed. After the solution became transparent, it was placed into an FJ2105 liquid scintillation counter so as to measure radioactivity and to determine cpm of the sample. Separately, dpm of 52 samples obtained from four groups of animals was measured (External Standard Method).
The quantity of the drug inside the tissue was determined in the following way.
Drug quantity in tissue (cpm/mg)=(sample cpm).div.(digested tissue quantity (mg))
Drug quantity in tissue (μg/mg)=(sample cpm/mg×6)[…](count efficiency (E)×2.22×10^7 ×0.34 mCi/mg (specific radioactivity))

[2] = test system: mice; assay: Acute Toxicity Test (Experiment 2); format: in vivo, mice (Kunming species); settings: for No. of dead animals: of 10 animals
Protocol: The compound 1-3 was pale yellow crystalline poweder and its lot number was 930113. The solution was a pale yellow transparent solution, and has a concentration of 50 mg/ml and a pH of about 5. It was offered from Osteoporosis Research Laboratory, Department of Pharmacy, West China University of Medical Science School (WCUMS).
Kunming species mice, health: first class, weight: 18 to 21 g, half male and half female. The mice were offered from Experimental Animal Center of WCUSM.
Four to five dose groups were prepared in equal ratios (1:0.7 to 0.8) within the LD range of 0 to 100% obtained by preliminary tests. The drug for peroral administration was prepared by suspending the solid compound 1-3 in 1% CMCNa2 to form a suspension. For injection, drug solutions having different concentrations were prepared by dissolving the compound 1-3 in physiological saline solution by a low specific gravity dilution method. The animals were starved (but without limiting water), and 20 hours later, ten mice were grouped at random into each group irrespective of their sex and body weight. The drug was dosed once a day in a dose of 0.2 ml/10 g and the animals were inspected. Dead animals were dissected and any change of the morbid state was examined with by the naked eye.
After the chemical was dosed once in the maximum concentration and in the maximum capacity for peroral administration to 20 mice (10 males and 10 females), the animals were examined for 7 days. […] The maximum tolerance dose (MTD) was >6 g/kg.

[3] = test system: osteoblast originating from the calvaria of Whister rats; assay: Osteogenesis Test (1) (Experiment 3), von Kossa dyeing; format: cell-based; settings: 10^-8 M, addition in calcification period
Protocol: A first generation incubation system of the osteoblast originating from the calvaria of Whister rats (female, 6-months' age) was used as the test cells. After the start of incubation, the sample drug (compound 1-3) was added once a day to the medium in a dose of 10^-6 M, 10^-8 M or 10^-9 M on the second and third days (propagation period). Alternatively, the compound 1-3 in the amount described above was added once a day to the medium for 4 days (calcification period) from the seventh day from the start of incubation. On the fourteenth day from the start of incubation, the cells were subjected to von Kossa dyeing and detection of phosphates was carried out. The area of the bone knots which were dyed to brown was confirmed by the naked eye and was used as the index for osteogenesis.

[4] = test system: synthesis of bone proteins; settings: cell level, U.S. Pat. No. 4,925,833; cited from earlier work
[5] = peroral, maximum concentration, single dose, 7 days

Q: Which “drug concentration in blood” value ([1]; 1 min) does the source give for `CN(C)C1C(=O)C(C(=O)NCN2CCN(CCOc3ccc4c(c3)CCC3C4CCC4(C)C(=O)CCC34)CC2)=C(O)C2(O)C(=O)C3=C(O)c4c(O)cccc4C(C)(O)C3CC12` (stereo not shown) [Compound 1-3, N-4-[17-oxy-estra-1,3,5 (10)-trien-3-oxyethyl]-piperazine-1-methylene-tetracycline] here?
A: 8665 cpm/50 μl

Q: What about the “drug concentration in blood” value ([1]; 5 min) of the same compound?
A: 5238 cpm/50 μl

Q: What about the “drug concentration in blood” value ([1]; 15 min) of the same compound?
A: 2638 cpm/50 μl

Q: What about the “drug concentration in blood” value ([1]; 30 min) of the same compound?
A: 2347 cpm/50 μl

Q: What about the “drug concentration in blood” value ([1]; 1 hr) of the same compound?
A: 952 cpm/50 μl

Q: And the “drug concentration in blood” value ([1]; 4 hr)?
A: 659 cpm/50 μl

Q: What about the “drug concentration in blood” value ([1]; 6 hr) of the same compound?
A: 715 cpm/50 μl

Q: And the “drug concentration in blood” value ([1]; 24 hr)?
A: 523 cpm/50 μl

Q: What about the “drug concentration in blood” value ([1]; 48 hr) of the same compound?
A: 272 cpm/50 μl

Q: What about the “drug concentration in blood” value ([1]; 72 hr) of the same compound?
A: 190 cpm/50 μl

Q: What about the “drug quantity in tissue: brain” value ([1]; 1 min) of the same compound?
A: 20 cpm/mg tissue

Q: What about the “drug quantity in tissue: muscle” value ([1]; 1 min) of the same compound?
A: 28 cpm/mg tissue

Q: What about the “drug quantity in tissue: stomach” value ([1]; 1 min) of the same compound?
A: 30 cpm/mg tissue

Q: And the “drug quantity in tissue: brain” value ([1]; 5 min)?
A: 13 cpm/mg tissue

Q: And the “drug quantity in tissue: muscle” value ([1]; 5 min)?
A: 32 cpm/mg tissue

Q: And the “drug quantity in tissue: stomach” value ([1]; 5 min)?
A: 39 cpm/mg tissue

Q: And the “drug quantity in tissue: brain” value ([1]; 15 min)?
A: 9 cpm/mg tissue

Q: And the “drug quantity in tissue: muscle” value ([1]; 15 min)?
A: 15 cpm/mg tissue

Q: What about the “drug quantity in tissue: stomach” value ([1]; 15 min) of the same compound?
A: 28 cpm/mg tissue

Q: And the “drug quantity in tissue: brain” value ([1]; 30 min)?
A: 10 cpm/mg tissue

Q: And the “drug quantity in tissue: muscle” value ([1]; 30 min)?
A: 22 cpm/mg tissue

Q: And the “drug quantity in tissue: stomach” value ([1]; 30 min)?
A: 32 cpm/mg tissue

Q: And the “drug quantity in tissue: brain” value ([1]; 1 hour)?
A: 7 cpm/mg tissue

Q: What about the “drug quantity in tissue: muscle” value ([1]; 1 hour) of the same compound?
A: 11 cpm/mg tissue

Q: And the “drug quantity in tissue: stomach” value ([1]; 1 hour)?
A: 12 cpm/mg tissue

Q: What about the “drug quantity in tissue: brain” value ([1]; 4 hours) of the same compound?
A: 7 cpm/mg tissue

Q: What about the “drug quantity in tissue: muscle” value ([1]; 4 hours) of the same compound?
A: 7 cpm/mg tissue

Q: What about the “drug quantity in tissue: stomach” value ([1]; 4 hours) of the same compound?
A: 10 cpm/mg tissue

Q: And the “drug quantity in tissue: brain” value ([1]; 6 hours)?
A: 6 cpm/mg tissue

Q: And the “drug quantity in tissue: muscle” value ([1]; 6 hours)?
A: 6 cpm/mg tissue

Q: What about the “drug quantity in tissue: stomach” value ([1]; 6 hours) of the same compound?
A: 9 cpm/mg tissue

Q: And the “drug quantity in tissue: brain” value ([1]; 24 hours)?
A: 4 cpm/mg tissue

Q: What about the “drug quantity in tissue: muscle” value ([1]; 24 hours) of the same compound?
A: 4 cpm/mg tissue

Q: And the “drug quantity in tissue: stomach” value ([1]; 24 hours)?
A: 6 cpm/mg tissue

Q: What about the “drug quantity in tissue: brain” value ([1]; 48 hours) of the same compound?
A: 4 cpm/mg tissue

Q: What about the “drug quantity in tissue: muscle” value ([1]; 48 hours) of the same compound?
A: 5 cpm/mg tissue

Q: What about the “drug quantity in tissue: stomach” value ([1]; 48 hours) of the same compound?
A: 4 cpm/mg tissue

Q: And the “drug quantity in tissue: brain” value ([1]; 72 hours)?
A: 3 cpm/mg tissue

Q: What about the “drug quantity in tissue: muscle” value ([1]; 72 hours) of the same compound?
A: 4 cpm/mg tissue

Q: What about the “drug quantity in tissue: stomach” value ([1]; 72 hours) of the same compound?
A: 3 cpm/mg tissue

Q: What about the toxicity [2] of the same compound?
A: its toxicity was extremely low

Q: What about the “activity / behaviour after injection” value ([2]; after intravenous injection) of the same compound?
A: activity of the mice decreased and then the mice started jumping and went into spasm

Q: And the “difference between the sexes of the dead animals” value ([2]; after intravenous injection)?
A: No difference was found between the sexes of the dead animals

Q: And the “eyeball, incontinence” value ([2]; after intravenous injection)?
A: The eyeball protruded and changed to white, and incontinence of urine and feces was observed

Q: What about the “time of death of poisoned animals” value ([2]; after intravenous injection) of the same compound?
A: the major proportion of the poisoned animals died instantly, an extremely few survived were also dead within 24 hours

Q: And the “change of the morbid state in dissection” value ([2]; dead animals, naked eye)?
A: any change of the morbid state could not at all be observed by the naked eye

Q: And the death ratio ([2]; i.v. tail vein, 102.4 mg/kg)?
A: 0%

Q: And the “provit unit (Y)” value ([2]; i.v. tail vein, 102.4 mg/kg)?
A: 2.60

Q: What about the “No. of dead animals” value ([2]; i.v. tail vein, 102.4 mg/kg) of the same compound?
A: 0

Q: And the death ratio ([2]; i.v. tail vein, 128 mg/kg)?
A: 20%

Q: And the “provit unit (Y)” value ([2]; i.v. tail vein, 128 mg/kg)?
A: 4.16

Q: What about the “No. of dead animals” value ([2]; i.v. tail vein, 128 mg/kg) of the same compound?
A: 2

Q: And the death ratio ([2]; i.v. tail vein, 160 mg/kg)?
A: 80%

Q: What about the “provit unit (Y)” value ([2]; i.v. tail vein, 160 mg/kg) of the same compound?
A: 5.84

Q: What about the “No. of dead animals” value ([2]; i.v. tail vein, 160 mg/kg) of the same compound?
A: 8

Q: What about the death ratio ([2]; i.v. tail vein, 200 mg/kg) of the same compound?
A: 100%

Q: What about the “provit unit (Y)” value ([2]; i.v. tail vein, 200 mg/kg) of the same compound?
A: 7.40

Q: And the “No. of dead animals” value ([2]; i.v. tail vein, 200 mg/kg)?
A: 10

Q: What about the death ratio ([2]; i.v. tail vein, 250 mg/kg) of the same compound?
A: 100%

Q: What about the “No. of dead animals” value ([2]; i.v. tail vein, 250 mg/kg) of the same compound?
A: 10

Q: And the LD50 ([2]; i.v. tail vein, Bliss method)?
A: 143.11 mg/kg

Q: And the “LD50, range of 95% reliability limit” value ([2]; i.v. tail vein, Bliss method)?
A: 132.95 to 154.05 mg/kg

Q: What about the LD50 ([2]; intravenous injection, tail vein) of the same compound?
A: 143.11 mg/kg

Q: What about the “abnormality in the mice” value [2, 5] of the same compound?
A: no abnormality was found in the mice

Q: What about the death of mice [2, 5] of the same compound?
A: no mouse was dead

Q: And the “Osteogenesis promotion function, calcification period” value [3]?
A: .uparw. .uparw.

Q: Which “synthesis of bone proteins” value [4] does the source give for `CN(C)[C@@H]1C(O)=C(C(N)=O)C(=O)[C@@]2(O)C(O)=C3C(=O)c4c(O)cccc4[C@@](C)(O)[C@H]3C[C@@H]12` [tetracycline] here?
A: promotes the synthesis of bone proteins
